Results taken from PMC5470982, “Thymoquinone exerts potent growth-suppressive activity on leukemia through DNA hypermethylation reversal in leukemia cells” (Oncotarget, 2017).

Biological target: T1, M. SssI (Spiroplasma monobiae, UniProt P15840)
T1 construct: gene sssIM
Test: in vitro DNA methylation assay with biotin/digoxigenin-labelled ds-oligonucleotide, HpaII cleavage and fluorescence readout
Assay type: biochemical

T1 sequence (P15840 whole entry, looked up): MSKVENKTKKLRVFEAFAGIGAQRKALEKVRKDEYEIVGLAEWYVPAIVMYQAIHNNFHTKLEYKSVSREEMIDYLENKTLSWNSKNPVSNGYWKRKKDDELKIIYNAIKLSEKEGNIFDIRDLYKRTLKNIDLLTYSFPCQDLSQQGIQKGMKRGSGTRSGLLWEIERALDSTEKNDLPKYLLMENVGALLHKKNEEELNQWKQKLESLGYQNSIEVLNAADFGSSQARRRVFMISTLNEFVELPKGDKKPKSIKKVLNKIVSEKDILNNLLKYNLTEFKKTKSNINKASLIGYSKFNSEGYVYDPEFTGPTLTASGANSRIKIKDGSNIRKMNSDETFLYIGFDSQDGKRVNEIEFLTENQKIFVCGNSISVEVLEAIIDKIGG

CC1=CC(=O)C(C(C)C)=CC1=O [TQ, thymoquinone]
IC50: 30 nM
